Experimental data published in PubChem BioAssay (NCI).
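Grown in 96-well plates, cells were treated for 48 hours with each compound at five concentrations. Insufficient inhibition: endpoint recorded as highest concentration tested. TGI marks complete inhibition of growth.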

Legend:
Assay in all cases: growth of human tumour cells (NCI), 48 h
U251 CNS = test system: U251 CNS
SK-MEL-2 melanoma = test system: SK-MEL-2 melanoma
MDA-MB-231 breast = test system: MDA-MB-231 breast
OVCAR-8 ovarian = test system: OVCAR-8 ovarian
HCC-2998 colon = test system: HCC-2998 colon
MCF7 breast = test system: MCF7 breast
HS 578T breast = test system: HS 578T breast
RXF 393 renal = test system: RXF 393 renal
UO-31 renal = test system: UO-31 renal
MDA-N = test system: MDA-N
SR leukemia = test system: SR leukemia
HCT-15 colon = test system: HCT-15 colon
HCT-116 colon = test system: HCT-116 colon
SF-295 CNS = test system: SF-295 CNS
SK-OV-3 ovarian = test system: SK-OV-3 ovarian
ACHN renal = test system: ACHN renal
PC-3 prostate = test system: PC-3 prostate
CCRF-CEM leukemia = test system: CCRF-CEM leukemia
NCI-H23 lung = test system: NCI-H23 lung
NCI-H460 lung = test system: NCI-H460 lung
RPMI-8226 leukemia = test system: RPMI-8226 leukemia
IGROV1 ovarian = test system: IGROV1 ovarian
K-562 leukemia = test system: K-562 leukemia
DU-145 prostate = test system: DU-145 prostate
SK-MEL-28 melanoma = test system: SK-MEL-28 melanoma
SNB-75 CNS = test system: SNB-75 CNS
A549 NSCLC = test system: A549 NSCLC
LOX IMVI melanoma = test system: LOX IMVI melanoma
MDA-MB-435 = test system: MDA-MB-435
HL-60(TB) leukemia = test system: HL-60(TB) leukemia
NCI-H522 lung = test system: NCI-H522 lung
HOP-62 NSCLC = test system: HOP-62 NSCLC
A498 renal = test system: A498 renal
CAKI-1 renal = test system: CAKI-1 renal
BT-549 breast = test system: BT-549 breast
SN12C renal = test system: SN12C renal
COLO 205 colon = test system: COLO 205 colon
OVCAR-4 ovarian = test system: OVCAR-4 ovarian
SF-539 CNS = test system: SF-539 CNS
UACC-257 melanoma = test system: UACC-257 melanoma
SK-MEL-5 melanoma = test system: SK-MEL-5 melanoma
HT29 colon = test system: HT29 colon
KM12 colon = test system: KM12 colon
NCI/ADR-RES ovarian = test system: NCI/ADR-RES ovarian
786-0 renal = test system: 786-0 renal
UACC-62 melanoma = test system: UACC-62 melanoma
NCI-H226 lung = test system: NCI-H226 lung
SW-620 colon = test system: SW-620 colon
TK-10 renal = test system: TK-10 renal
EKVX NSCLC = test system: EKVX NSCLC
OVCAR-3 ovarian = test system: OVCAR-3 ovarian
OVCAR-5 ovarian = test system: OVCAR-5 ovarian
SF-268 CNS = test system: SF-268 CNS
MALME-3M melanoma = test system: MALME-3M melanoma
T-47D breast = test system: T-47D breast

Measured: TGI

Nc1nc(Cl)cc(NCC2(CO)COC2)n1
> 100 µM: all assays above
